Test [1] has as its system Enterococcus faecalis. The experiment in a line: Antibacterial activity against vancomycin-resistant Enterococcus faecalis ATCC 51559 strain. The test is classed as functional.
Test [2] has as its system Escherichia coli. The experiment in a line: Antibacterial activity against Escherichia coli ATCC 25922 strain. The test is classed as functional.
Test [3] has as its system Streptococcus pneumoniae. The test can be described thus: Antibacterial activity against penicillin-resistant Streptococcus pneumoniae ATCC 51422 strain. The class given is functional.
Test [4] deals with Streptococcus pneumoniae. The test can be described thus: Antibacterial activity against penicillin-sensitive Streptococcus pneumoniae ATCC 49619 strain. The test is classed as functional.
Test [5] relates to Staphylococcus aureus. The test can be described thus: Antibacterial activity against methicillin-resistant Staphylococcus aureus ATCC 27660 strain. The class given is functional.
Test [6] relates to Staphylococcus aureus. The experiment in a line: Antibacterial activity against methicillin-sensitive Staphylococcus aureus ATCC 13709 strain. The class given is functional.
The subject of test [7] is Enterococcus faecalis. The experiment in a line: Antibacterial activity against vancomycin-sensitive Enterococcus faecalis ATCC 29212 strain. The class given is functional.
Test [8] deals with Staphylococcus aureus. The test can be described thus: Antibacterial activity against methicillin-susceptible Staphylococcus aureus ATCC 13709 strain; (Range is 1-2 ug/mL). The test is classed as functional.
The subject of test [9] is Enterococcus faecalis. The experiment in a line: Antibacterial activity against vancomycin-susceptible Enterococcus faecalis ATCC 29212 strain. The class given is functional.
The target of test [10] is Nucleic Acid. The test can be described thus: Dissociation constant for the DNA binding was determined by quantitative DNase I footprint titration. The test is classed as nucleic-acid assay.
Test [11] concerns Enterococcus faecalis. The test can be described thus: Antibacterial activity against vancomycin-resistant Enterococcus faecalis ATCC 51559 strain; NA means not analyzed. The test is classed as functional, organism-based.
Test [12] deals with Streptococcus pneumoniae. The test can be described thus: Antibacterial activity against penicillin-resistant Streptococcus pneumoniae ATCC 51422 strain; NA means not analyzed. The test is classed as functional, organism-based.
In test [13] the test system is Mus musculus. The experiment in a line: In vivo protective dose for efficacy against a lethal infection of methicillin-resistant Staphylococcus aureus in a mouse peritoneal sepsis model administered intravenously. The test is classed as functional.
Test [14] has as its system Staphylococcus aureus. The test can be described thus: Antibacterial activity against methicillin-susceptible Staphylococcus aureus ATCC 13709 strain. The test is classed as functional.
In test [15] the test system is Moraxella catarrhalis. The test can be described thus: Antibacterial activity against Moraxella catarrhalis ATCC 25238 strain. The class given is functional.
The subject of test [16] is Pseudomonas aeruginosa. The test can be described thus: Antibacterial activity against Pseudomonas aeruginosa (ATCC 27853) strain; inactive. The class given is functional.
Test [17] concerns Haemophilus influenzae. The experiment in a line: Antibacterial activity against Haemophilus influenzae ATCC 78025 strain. The class given is functional.

These results are taken from ChEMBL document CHEMBL1147602, “DNA binding ligands targeting drug-resistant Gram-positive bacteria. Part 1: Internal benzimidazole derivatives” (Bioorg Med Chem Lett, 2004).

≈ marks a conversion by molar mass, not a printed value. Where “and” joins values, the source holds several entries; their conditions need not be identical. Identical values can stand only once. Calls of active or inactive are those of the source. The calls are words filed in the database; no cut-off is given here.

Turning to `Cn1cc(NC(=O)c2sc3ccccc3c2Cl)cc1C(=O)Nc1cc(-c2nc3cc(C(=O)NCCN4CCOCC4)ccc3[nH]2)n(C)c1`, the MIC is 0.25 µg/mL (≈ 0.365 µM) in [1]; above 32 µg/mL in test [2]; 0.13 µg/mL (≈ 0.19 µM) in test [3]; 0.13 µg/mL (≈ 0.19 µM) in test [4]; 0.5 µg/mL (≈ 0.73 µM) in test [5]; 0.13 µg/mL (≈ 0.19 µM) in test [6]. This compound also registered an MIC in test [7] of 0.25 µg/mL (≈ 0.365 µM).

As to `Cn1cc(NC(=O)c2cc(NC(=O)c3cc(NC(=O)c4sccc4Cl)cn3C)cn2C)cc1C(=O)NCCN1CCOCC1`, the MIC was above 32 µg/mL in test [2], 0.13 µg/mL (≈ 0.203 µM) in test [4], 2 µg/mL (≈ 3.12 µM) in [8] and 1 µg/mL (≈ 1.56 µM) in test [9].

For `Cn1cc(NC(=O)c2ccc(Cl)cc2F)cc1C(=O)Nc1cc(-c2nc3cc(C(=O)NCCN4CCOCC4)ccc3[nH]2)n(C)c1`, the MIC in [1] is 0.13 µg/mL (≈ 0.201 µM); in test [2], 8 µg/mL (≈ 12.4 µM); in [3], 0.13 µg/mL (≈ 0.201 µM); in [4] it was 0.03 µg/mL (≈ 0.0464 µM); in [5] it was 0.13 µg/mL (≈ 0.201 µM); in test [6], 0.25 µg/mL (≈ 0.386 µM). Also, the MIC in [7] was found to be 0.03 µg/mL (≈ 0.0464 µM).

`Cn1cc(NC(=O)c2ccc(Cl)cc2F)cc1-c1nc2cc(C(=O)NCCN3CCOCC3)ccc2[nH]1`: the MIC in test [1] was 0.06 µg/mL (≈ 0.114 µM); in test [2], above 32 µg/mL; in test [3] it was 0.03 µg/mL (≈ 0.0571 µM); in test [4], 0.03 µg/mL (≈ 0.0571 µM); in test [5], 0.25 µg/mL (≈ 0.476 µM); in test [6] it was 0.13 µg/mL (≈ 0.248 µM). This compound displayed an MIC in test [7] of 0.03 µg/mL (≈ 0.0571 µM).

One may read the Kd as the concentration at which binding is half-saturated. In turn, `Cn1cc(NC(=O)c2sccc2Cl)cc1-c1nc2cc(C(=O)NCCN3CCOCC3)ccc2[nH]1` came in with a Kd in test [10] of around 500 nM. Further, the MIC entry in test [11] and in [12] was “inactive” each time. Further, the MIC in [2] is above 32 µg/mL; in [4] it was 4 µg/mL (≈ 7.8 µM); in test [5] it was 8 µg/mL (≈ 15.6 µM); in [6], 8 µg/mL (≈ 15.6 µM); in test [7], 4 µg/mL (≈ 7.8 µM).

For `Cn1cc(NC(=O)c2sccc2Cl)cc1C(=O)Nc1cc(-c2nc3cc(C(=O)NCCN4CCSCC4)ccc3[nH]2)n(C)c1`, the MIC in test [1] is 0.13 µg/mL (≈ 0.2 µM); in test [2], above 32 µg/mL; in test [3], 0.06 µg/mL (≈ 0.0921 µM); in [4], 0.13 µg/mL (≈ 0.2 µM); in test [5], 0.5 µg/mL (≈ 0.768 µM); in test [6] it was 1 µg/mL (≈ 1.54 µM). Besides, in test [7], the MIC is 0.13 µg/mL (≈ 0.2 µM).

`Cn1cc(NC(=O)c2sccc2Cl)cc1C(=O)Nc1cc(-c2nc3cc(C(=O)NCCN4CCOCC4)ccc3[nH]2)n(C)c1`: in test [10], the Kd is below 0.1 nM. Further, the MIC was 0.13 µg/mL (≈ 0.205 µM) in test [1]; 4 µg/mL (≈ 6.3 µM) in test [2]; 0.03 µg/mL (≈ 0.0472 µM) in [3]; 0.25 µg/mL (≈ 0.394 µM) in test [4]; 0.25 µg/mL (≈ 0.394 µM) in [5]; 0.25 µg/mL (≈ 0.394 µM) in test [14]. Moreover, the MIC in test [9] was determined as 0.25 µg/mL (≈ 0.394 µM). Further, in test [13], the Protective dose was 50 mg/kg and 20 mg/kg.

For the compound `Cn1cc(NC(=O)c2sc3ccccc3c2Cl)cc1-c1nc2cc(C(=O)NCCN3CCOCC3)ccc2[nH]1`, the MIC in [1] is 0.25 µg/mL (≈ 0.444 µM); in test [2], above 32 µg/mL; in test [3] it was 0.25 µg/mL (≈ 0.444 µM); in [4] it was 0.13 µg/mL (≈ 0.231 µM); in [5], 0.13 µg/mL (≈ 0.231 µM); in [6], 0.25 µg/mL (≈ 0.444 µM). In test [7], this compound yielded an MIC of 0.5 µg/mL (≈ 0.888 µM).

As for `Cn1cc(NC(=O)c2ccc3[nH]c(-c4cc(NC(=O)c5sccc5Cl)cn4C)nc3c2)cc1C(=O)NCCN1CCOCC1`, the MIC in [2] was above 32 µg/mL; in test [4], 0.25 µg/mL (≈ 0.394 µM); in [14] it was 0.13 µg/mL (≈ 0.205 µM); in test [9], 0.25 µg/mL (≈ 0.394 µM).

`Cn1cc(NC(=O)c2ccc(F)cc2F)cc1C(=O)Nc1cc(-c2nc3cc(C(=O)NCCN4CCOCC4)ccc3[nH]2)n(C)c1`: the MIC is 0.25 µg/mL (≈ 0.396 µM) in test [1]; 4 µg/mL (≈ 6.34 µM) in test [2]; 0.06 µg/mL (≈ 0.0951 µM) in test [3]; 0.06 µg/mL (≈ 0.0951 µM) in test [4]; 0.13 µg/mL (≈ 0.206 µM) in [5]; 0.25 µg/mL (≈ 0.396 µM) in test [6]. The MIC in test [7] is 0.06 µg/mL (≈ 0.0951 µM).

Consider `Cn1cc(NC(=O)c2sccc2Cl)cc1C(=O)Nc1cc(-c2nc3cc(C(=O)NCCN4CCCCC4)ccc3[nH]2)n(C)c1`, for which the MIC is 0.5 µg/mL (≈ 0.79 µM) in test [1]; above 32 µg/mL in [2]; 0.13 µg/mL (≈ 0.205 µM) in test [3]; 0.25 µg/mL (≈ 0.395 µM) in test [4]; 0.5 µg/mL (≈ 0.79 µM) in test [5]; 2 µg/mL (≈ 3.16 µM) in test [6]. In [7], this compound yielded an MIC of 0.5 µg/mL (≈ 0.79 µM).

For the compound `Cn1cc(NC(=O)c2cc3cc4c(cc3s2)OCO4)cc1-c1nc2cc(C(=O)NCCN3CCOCC3)ccc2[nH]1`, the MIC worked out at 0.03 µg/mL (≈ 0.0524 µM) in [1]; 0.5 µg/mL (≈ 0.873 µM) in [2]; 0.031 µg/mL (≈ 0.0541 µM) in test [15]; 32 µg/mL (≈ 55.9 µM) in [16]; 0.06 µg/mL (≈ 0.105 µM) in test [3]; 0.06 µg/mL (≈ 0.105 µM) in [4]. The MIC in test [5] was determined as 0.03 µg/mL (≈ 0.0524 µM); in test [6], 0.03 µg/mL (≈ 0.0524 µM); in test [17], 0.06 µg/mL (≈ 0.105 µM); in test [7] it was 0.03 µg/mL (≈ 0.0524 µM).

As to `Cn1cc(NC(=O)c2cc3ccccc3cn2)cc1-c1nc2cc(C(=O)NCCN3CCOCC3)ccc2[nH]1`, the Kd in [10] was around 10 nM. Moreover, the MIC was 1 µg/mL (≈ 1.91 µM) in test [1]; above 32 µg/mL in [2]; 0.5 µg/mL (≈ 0.955 µM) in test [3]; 0.25 µg/mL (≈ 0.477 µM) in [4]; 0.5 µg/mL (≈ 0.955 µM) in [5]; 0.5 µg/mL (≈ 0.955 µM) in [6]. The MIC in [7] turned out to be 0.5 µg/mL (≈ 0.955 µM).
